Here are results for one compound from paper PMC5078011, “The oleocanthal-based homovanillyl sinapate as a novel c-Met inhibitor” (Oncotarget, 2016).

The experiment concerns the target c-Met (M1250T) (Homo sapiens, UniProt P08581, M1250T). Nature of the experiment: Z'-LYTE Tyr6 peptide kinase assay, recombinant M1250T c-Met. Format: biochemical. The settings on record: read-out: (-)-Oleocanthal^a / IC50 (μM) ± SEM.

Each structure is given as a SMILES string.

Chain of c-Met (M1250T) (P08581 956-1390 M1250T limits assumed): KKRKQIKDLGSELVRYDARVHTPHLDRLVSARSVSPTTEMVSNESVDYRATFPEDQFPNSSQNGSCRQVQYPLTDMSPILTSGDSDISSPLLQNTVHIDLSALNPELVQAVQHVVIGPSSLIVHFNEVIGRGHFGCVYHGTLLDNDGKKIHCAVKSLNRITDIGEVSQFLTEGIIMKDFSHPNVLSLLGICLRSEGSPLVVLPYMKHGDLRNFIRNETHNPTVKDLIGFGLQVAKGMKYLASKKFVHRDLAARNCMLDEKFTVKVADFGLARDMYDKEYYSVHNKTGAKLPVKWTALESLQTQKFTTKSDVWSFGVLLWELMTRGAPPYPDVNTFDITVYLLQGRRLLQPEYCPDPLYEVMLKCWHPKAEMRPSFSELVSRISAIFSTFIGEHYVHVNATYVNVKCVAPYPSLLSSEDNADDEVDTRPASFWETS

As for `C/C=C(/C=O)[C@@H](CC=O)CC(=O)OCCc1ccc(O)cc1` [S (−)-oleocanthal], the IC50 came to 3.9 µM.
